Some results are limits rather than exact numbers.

The values below come from US20150278436A1, “Methods For Evaluating Effects Of A Treatment On Biological Processes And Pathways” (The Procter & Gamble Company, priority 2014, published 2015).

Holding throughout (assay type): cell-based
For assay [1], the system named is ATPase regulation processes/pathways. Kind of assay: Percentile of treatment anti-aging effect on Gene Ontology processes/pathways (FIG. 7). The source says:
(§1) In general, the method computes a distance between two vectors (i.e., a vector distance), and determines the statistical significance of the vector distance to assess the effect of a treatment on a particular biological pathway. The first of the two vectors is a set of expression changes representing the treatment effect of an ingredient on genes in the biological pathway, and includes one value for each of the genes in the biological pathway. The second of the vectors is a set of expression changes representing the effect of the condition on the genes of the biological pathway. By comparing the vector distance between the two vectors against an empirical distribution of vector distances, the significance of the effect of the treatment on the biological pathway can be determined. […]
(§2) While the vector distance for a treatment and a target biological pathway is indicative of the effect of the treatment on the target biological pathway, the vector distance by itself is not indicative of the significance of the effect relative to other effects on other biological pathways. The statistical significance of a particular vector distance may be extrapolated from an empirical distribution of vector distances calculated using reference genomics data such as connectivity map (CMap) genomics data. […]

Assay [2] relates to innate and adaptive immunity processes/pathways. Nature of the assay: Percentile of treatment anti-aging effect on Gene Ontology processes/pathways (FIG. 8).
Source text: as §1, §2

Assay [3] has as its system cholesterol metabolism processes/pathways. Kind of assay: Percentile of treatment anti-aging effect on Gene Ontology processes/pathways (FIG. 6). The following applies: for effect on the cholesterol metabolism processes/pathways: processes/pathways 100a-h, associated with fibroblasts.
Source text: (§3) In general, the method computes a distance between two vectors (i.e., a vector distance), and determines the statistical significance of the vector distance to assess the effect of a treatment on a particular biological pathway. The first of the two vectors is a set of expression changes representing the treatment effect of an ingredient on genes in the biological pathway, and includes one value for each of the genes in the biological pathway. The second of the vectors is a set of expression changes representing the effect of the condition on the genes of the biological pathway. By comparing the vector distance between the two vectors against an empirical distribution of vector distances, the significance of the effect of the treatment on the biological pathway can be determined. The genes corresponding to each biological pathway/process and represented in each of the vectors are specified by Gene Ontology, KEGG pathway, WikiPathway, and/or any other known source.
Specific methods and calculations will now be described using the examples above in which the target treatment is Pal-KTTKS (and others) and the target condition is aging of skin cells. Throughout, UV-mediated aging may also be referred to as “photo-aging,” and cells subject to photo-aging may be referred to as “UV-exposed skin cells” or “skin cells exposed to UV radiation.” Similarly, non-UV-mediated aging may also be referred to as “intrinsic aging,” and cells subject to intrinsic aging may be referred to as “non-UV-exposed skin cells.” The treatment effect—in this case the anti-aging effect—of a specified ingredient (e.g., Pal-KTTKS) is measured by the vector distance (e.g., cosine distance) between two vectors of expression changes (e.g., log 2 fold expression changes) of genes in a target biological process. […]
as §2
Using the distributions, a percentile may be calculated for the vector distance between the clinical and treatment vectors. Specifically, the percentile among the extreme region of the distribution for the i-th target biological process is calculated according to […]

Assay [4] relates to cholesterol biosynthesis pathway. Kind of assay: Vector (cosine) distance between treatment and clinical aging gene expression vectors, with percentile in the reference genomics distribution (FIG. 4).
Source text: as §3
In the case of a study of the effects of a particular agent, Pal-KTTKS (e.g., at 3 ppm concentrations), on aging of skin cells, for example, a particular biological process may be targeted. For each of the genes in the target biological process, the expression changes (e.g., log 2 fold changes) between old and young cells may be calculated for cells exposed to ultraviolet (UV) radiation (e.g., cells taken from the arms), for cells not exposed to UV radiation (e.g., cells taken from the buttocks), or for both. That is, the condition genomics data 34 may be compared to the control genomics data 33 to determine the expression change for each of the genes in the target biological process. The expression changes between treated and untreated cells may also be calculated for each of the genes in the target biological process, which in some implementations may include comparing the control genomics data 33 to the treatment genomics data 32. Each set of expression changes (where each set comprises an expression change for each of the genes in the target biological process) forms a corresponding vector, and the vector for the treatment effect (also referred to hereafter as the “treatment vector”) is compared to the vector for the reference effect (e.g., the vector for old/young cells), which is also referred to herein as a “clinical vector,” by taking the distance (e.g., cosine distance) between the vectors.
Specific methods and calculations will now be described using the examples above in which the target treatment is Pal-KTTKS (and others) and the target condition is aging of skin cells. Throughout, UV-mediated aging may also be referred to as “photo-aging,” and cells subject to photo-aging may be referred to as “UV-exposed skin cells” or “skin cells exposed to UV radiation.” Similarly, non-UV-mediated aging may also be referred to as “intrinsic aging,” and cells subject to intrinsic aging may be referred to as “non-UV-exposed skin cells.” The treatment effect—in this case the anti-aging effect—of a specified ingredient (e.g., Pal-KTTKS) is measured by the vector distance (e.g., cosine distance) between two vectors of expression changes (e.g., log 2 fold expression changes) of genes in a target biological process. One of the vectors compares treatment genomics data for the genes with control genomics data for the genes to represent the treatment effects on the genes (i.e., a “treatment effect vector” or “treatment vector” of the ingredient). […]

For `NC(=O)c1cccnc1` [Niacinamide], the “effect on the ATPase regulation processes/pathways overall” value in assay [1] is listed as “almost no effect”. Also, in assay [2], the “effect on the set 140 of innate and adaptive immunity pathways” value is recorded as “strong effect”. Moreover, the “percentile values for innate and adaptive immunity processes/pathways” value in assay [2] (many of the percentile values, example threshold) is less than 5%. The “percentile for steroid metabolic process (100b)” value in assay [3] (columns D and E, only single process below exemplary threshold) is listed as less than 5%. Moreover, the “effect on the cholesterol metabolism processes/pathways” value in assay [3] (FIG. 6) is listed as “likely does not strongly affect”.
In the case of Pal-KTTKS, the “effect on the ATPase regulation processes/pathways overall” value in assay [1] is “almost no effect”. The “percentile values for each of the biological processes/pathways 100a-h” value in assay [3] (cholesterol metabolism set, FIG. 6) is recorded as “very low percentile values”. For the same molecule, the “effect on the cholesterol metabolism processes/pathways” value in assay [3] (FIG. 6) was “very strong effect”. The “calculated percentile of vector distance in distribution from fibroblast reference genomics data, UV-mediated aging” value in assay [4] (3 ppm on fibroblast cells, UV-exposed cells) was 0.36. For the same molecule, the “cosine distance with the photo aging vector” value in assay [4] (3 ppm on fibroblast cells, UV-exposed cells clinical vector, cholesterol biosynthesis pathway) is on record as −0.640. Moreover, the “calculated percentile of vector distance in distribution from fibroblast reference genomics data, intrinsic aging” value in assay [4] (3 ppm on fibroblast cells, non-UV-exposed cells) is listed as 0.22. For the same molecule, the “cosine distance with the intrinsic aging vector” value in assay [4] (3 ppm on fibroblast cells, non-UV-exposed cells clinical vector, cholesterol biosynthesis pathway) is −0.720. The “anti-aging benefit on the cholesterol synthesis pathway” value in assay [4] (both intrinsic and UV-mediated aging) is “strong anti-aging benefit”.
